Laboratory results reported in US20040146482A1, “Cosmetic and/or pharmaceutical preparations containing an extract of pterocarpus marsupium” (priority 2001, published 2004).

Test system: human keratinocytes
Assay: Cell protecting effect against UV-B in keratinocytes cultivated in vitro
Assay type: cell-based
Settings: UV-B 50 mJ/cm2, concentration not given
Excerpt: Background: UV-B rays cause inflammation (erythema, edema) by activating an enzyme, namely phospholipase A2 or PLA2, which removes arachidonic acid from the phospholipids of the cell membrane. Arachidonic acid is the precursor of the prostaglandins which cause inflammation and cell membrane damage; the prostaglandins E2 (=PGE2) are formed by cyclooxygenase. A UV-challenged cell produces another inflammation mediator, namely interleucine-1-alpha (1′ILα), which is capable of inducing the secretion of prostaglandins.
Method: The effect of UV-B radiation was investigated in vitro in keratinocytes by determining the release of the cytoplasm enzyme LDH (lactate dehydrogenase) and the(1′ILα) content.
To carry out the tests, a defined medium containing fetal calf serum was inoculated with the keratinocytes and Trichodyn® was added 72 hours after the inoculation.
The keratinocytes were then exposed to a dose of UV-B (50 mJ/cm^2-tubes: DUKE GL40E).
After incubation for another day at 37° C./5% CO2, the LDH content in the supernatant was determined. The LDH (lactate dehydrogenase) content was determined by an enzyme reaction (kit used to determine LDH levels from Roche). In addition , the (1′ILα) content was determined by the ELISA test. The number of adhering keratinocytes was determined (after trypsin treatment) with a particle counter.

For CC(=O)Oc1ccccc1C(=O)O [aspirin], the “(1′ILα) content” value (UV-B alone = 100) was 69%, the “Content of released LDH” value (UV-B alone = 100) was 66% and the No. of keratinocytes (control without UV-B = 100, UV-B alone 17) was 15%.
